Laboratory results: PMC10522932, “A broad inhibitor of acyl-acyl carrier protein synthetases” (Biochemistry and Biophysics Reports, 2023)

How the values were obtained:
Experiment in all cases: urea-PAGE gel shift of acyl-ACP, densitometry
Assay type in all cases: biochemical
[1] = molecular target: T1, AasC (Chlamydia trachomatis, UniProt O84781); conditions: read-out: % inhibition at 1 mM
T1 construct: gene aas; His6-tagged (pET16b or pET29a, synthetic gene), E. coli BL21[DE3], Ni-NTA purified
T1 sequence (O84781 1-537): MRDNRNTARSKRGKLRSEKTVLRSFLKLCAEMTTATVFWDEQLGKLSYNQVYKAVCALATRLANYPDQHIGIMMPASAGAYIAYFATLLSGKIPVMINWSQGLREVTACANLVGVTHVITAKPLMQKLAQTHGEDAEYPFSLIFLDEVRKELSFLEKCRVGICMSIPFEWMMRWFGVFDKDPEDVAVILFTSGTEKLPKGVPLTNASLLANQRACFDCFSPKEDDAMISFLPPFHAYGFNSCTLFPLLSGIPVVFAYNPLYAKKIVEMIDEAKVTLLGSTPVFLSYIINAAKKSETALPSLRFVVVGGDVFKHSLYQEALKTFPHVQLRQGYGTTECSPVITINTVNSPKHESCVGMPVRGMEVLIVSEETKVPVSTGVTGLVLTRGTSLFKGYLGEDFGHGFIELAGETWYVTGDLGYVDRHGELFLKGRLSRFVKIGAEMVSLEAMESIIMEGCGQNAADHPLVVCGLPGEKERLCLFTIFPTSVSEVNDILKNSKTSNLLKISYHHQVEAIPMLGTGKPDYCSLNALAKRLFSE

[2] = molecular target: T2, VhAasS (Vibrio harveyi, UniProt Q00IB3); conditions: read-out: % inhibition at 1 mM
T2 construct: gene aasS; His6-tagged, E. coli BL21[DE3], Ni-NTA purified; soluble enzyme
T2 sequence (Q00IB3 1-533): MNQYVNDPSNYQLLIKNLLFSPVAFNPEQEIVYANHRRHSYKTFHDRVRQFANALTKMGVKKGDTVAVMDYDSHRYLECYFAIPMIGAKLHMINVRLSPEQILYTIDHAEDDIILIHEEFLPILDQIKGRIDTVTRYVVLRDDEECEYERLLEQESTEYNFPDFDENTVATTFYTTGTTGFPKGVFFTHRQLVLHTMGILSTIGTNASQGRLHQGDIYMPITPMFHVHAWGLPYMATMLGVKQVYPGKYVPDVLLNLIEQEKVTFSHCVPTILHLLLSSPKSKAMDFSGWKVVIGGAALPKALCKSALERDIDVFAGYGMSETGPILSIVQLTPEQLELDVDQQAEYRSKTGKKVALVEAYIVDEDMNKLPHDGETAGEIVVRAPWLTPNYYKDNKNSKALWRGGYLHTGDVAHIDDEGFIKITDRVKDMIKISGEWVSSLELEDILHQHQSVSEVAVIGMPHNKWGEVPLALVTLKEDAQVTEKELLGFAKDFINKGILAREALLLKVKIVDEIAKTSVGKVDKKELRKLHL

[3] = molecular target: T2, VhAasS; conditions: holo-EcACP 30 uM, decanoic acid 1 mM, ATP 10 mM, MgCl2 12.5 mM, TCEP 2.5 mM, enzyme 2 uM, pH 7.5, 37 C, 24 h
[4] = molecular target: T1, AasC; conditions: holo-EcACP 30 uM, decanoic acid 1 mM, ATP 10 mM, MgCl2 12.5 mM, TCEP 2.5 mM, enzyme 50 uM, pH 7.5, 37 C, 24 h

SMILES	inhibition at 1000 µM [1] [%]	inhibition at 1000 µM [2] [%]	urea-PAGE gel shift of acyl-ACP, densitometry [3]	urea-PAGE gel shift of acyl-ACP, densitometry [4]
CCCCCCCCCC(=O)NS(=O)(=O)OC[C@H]1O[C@@H](n2cnc3c(N)ncnc32)[C@H](O)[C@@H]1O [C10-AMS]	100	100		
CCCCCCCCCC(=O)O [decanoic acid]			All AasS enzymes tested were able to load C10 onto EcACP	All AasS enzymes tested were able to load C10 onto EcACP
